Reference: ChEMBL document CHEMBL4190397, “Design and Synthesis of Novel and Selective Glycine Transporter-1 (GlyT1) Inhibitors with Memory Enhancing Properties” (J Med Chem, 2018)

What was measured:
[1] = biological target: T1, Sodium- and chloride-dependent glycine transporter 1 (Homo sapiens, UniProt P48067); experiment: Inhibition of recombinant human GlyT1c expressed in HEK293 cells assessed as reduction in [14C]glycine uptake after 2 hrs by microbeta scintillation counting method; format: cell-based
T1 sequence (P48067 whole entry): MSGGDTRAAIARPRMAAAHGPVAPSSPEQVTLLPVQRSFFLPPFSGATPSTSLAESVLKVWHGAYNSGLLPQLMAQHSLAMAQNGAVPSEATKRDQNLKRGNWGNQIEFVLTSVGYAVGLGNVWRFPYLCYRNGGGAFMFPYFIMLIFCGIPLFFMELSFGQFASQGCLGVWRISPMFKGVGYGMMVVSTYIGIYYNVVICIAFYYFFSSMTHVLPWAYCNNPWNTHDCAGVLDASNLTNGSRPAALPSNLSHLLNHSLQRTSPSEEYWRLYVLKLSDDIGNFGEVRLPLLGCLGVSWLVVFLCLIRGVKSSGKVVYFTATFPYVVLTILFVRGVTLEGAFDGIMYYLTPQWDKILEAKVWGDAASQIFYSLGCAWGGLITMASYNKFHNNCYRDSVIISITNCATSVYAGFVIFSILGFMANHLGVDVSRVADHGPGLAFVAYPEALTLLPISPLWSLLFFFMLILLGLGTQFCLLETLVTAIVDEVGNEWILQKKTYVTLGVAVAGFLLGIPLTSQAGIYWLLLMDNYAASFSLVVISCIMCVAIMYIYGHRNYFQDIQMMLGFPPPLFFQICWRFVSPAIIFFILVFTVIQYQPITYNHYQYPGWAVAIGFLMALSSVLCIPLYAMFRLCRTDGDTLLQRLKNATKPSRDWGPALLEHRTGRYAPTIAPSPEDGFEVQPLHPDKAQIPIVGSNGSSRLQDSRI

[2] = Intrinsic clearance in human liver microsomes at 1 uM assessed per mg protein at 37 degC up to 60 mins in presence of NADPH by HPLC-MS analysis; format: ADME, microsome; conditions: read-out: CLH
[3] = Intrinsic clearance in rat liver microsomes at 1 uM assessed per mg protein at 37 degC up to 30 mins in presence of NADPH by HPLC-MS analysis; format: ADME, microsome; conditions: read-out: CLH
[4] = biological target: Voltage-gated inwardly rectifying potassium channel KCNH2 (Homo sapiens, UniProt Q12809); experiment: Inhibition of human ERG expressed in CHO cells at 10 nM to 10 uM at holding potential of -80 mV measured after 5 mins by QPatch automated patch clamp electrophysiology method
Sequence of Voltage-gated inwardly rectifying potassium channel KCNH2 (Q12809 whole entry): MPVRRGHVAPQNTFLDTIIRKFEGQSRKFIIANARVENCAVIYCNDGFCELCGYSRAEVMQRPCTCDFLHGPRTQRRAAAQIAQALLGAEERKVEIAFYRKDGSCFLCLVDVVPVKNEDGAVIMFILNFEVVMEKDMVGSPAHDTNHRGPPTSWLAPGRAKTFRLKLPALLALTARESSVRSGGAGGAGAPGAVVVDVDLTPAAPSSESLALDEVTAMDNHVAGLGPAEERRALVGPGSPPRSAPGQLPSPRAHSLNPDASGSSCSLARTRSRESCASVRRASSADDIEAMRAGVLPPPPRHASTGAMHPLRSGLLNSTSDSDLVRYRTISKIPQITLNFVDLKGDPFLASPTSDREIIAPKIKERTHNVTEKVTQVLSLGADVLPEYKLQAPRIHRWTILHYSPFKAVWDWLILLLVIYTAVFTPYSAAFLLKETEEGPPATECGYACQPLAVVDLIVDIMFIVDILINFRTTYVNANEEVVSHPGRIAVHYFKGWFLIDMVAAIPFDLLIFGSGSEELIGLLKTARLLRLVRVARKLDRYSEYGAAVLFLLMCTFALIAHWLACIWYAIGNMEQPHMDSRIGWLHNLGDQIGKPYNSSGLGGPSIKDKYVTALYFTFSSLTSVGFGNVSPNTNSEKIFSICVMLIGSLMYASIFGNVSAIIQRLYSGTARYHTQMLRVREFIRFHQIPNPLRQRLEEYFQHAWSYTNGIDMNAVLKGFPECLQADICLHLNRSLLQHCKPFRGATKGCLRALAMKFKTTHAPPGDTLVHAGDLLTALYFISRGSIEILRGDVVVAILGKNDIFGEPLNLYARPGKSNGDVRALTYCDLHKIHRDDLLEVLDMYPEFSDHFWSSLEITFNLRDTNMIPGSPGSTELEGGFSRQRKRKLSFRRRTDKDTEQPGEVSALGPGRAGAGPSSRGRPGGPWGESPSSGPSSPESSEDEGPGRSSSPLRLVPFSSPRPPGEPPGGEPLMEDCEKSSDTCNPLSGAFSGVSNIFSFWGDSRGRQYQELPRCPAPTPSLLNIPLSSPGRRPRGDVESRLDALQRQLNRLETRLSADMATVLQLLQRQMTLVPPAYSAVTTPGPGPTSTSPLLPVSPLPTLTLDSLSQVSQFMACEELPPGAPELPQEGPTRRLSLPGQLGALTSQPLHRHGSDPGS

[5] = Apparent permeability from apical to basolateral side in MDCK-MDR1 cells monolayer at 5 uM after 60 mins by LC-MS/MS analysis; conditions: dog
[6] = Apparent permeability from basolateral to apical side in MDCK-MDR1 cells monolayer at 5 uM after 60 mins by LC-MS/MS analysis; conditions: dog
[7] = Efflux ratio of apparent permeability from basolateral to apical over apical to basolateral side in MDCK-MDR1 cells at 5 uM after 60 mins by LC-MS/MS analysis; conditions: dog
[8] = biological target: T2, Sodium- and chloride-dependent glycine transporter 2 (Homo sapiens, UniProt Q9Y345); experiment: Inhibition of recombinant human GlyT2 expressed in HEK293 cells assessed as reduction in [14C]glycine uptake after 2 hrs by microbeta scintillation counting method; format: cell-based
T2 sequence (Q9Y345 whole entry): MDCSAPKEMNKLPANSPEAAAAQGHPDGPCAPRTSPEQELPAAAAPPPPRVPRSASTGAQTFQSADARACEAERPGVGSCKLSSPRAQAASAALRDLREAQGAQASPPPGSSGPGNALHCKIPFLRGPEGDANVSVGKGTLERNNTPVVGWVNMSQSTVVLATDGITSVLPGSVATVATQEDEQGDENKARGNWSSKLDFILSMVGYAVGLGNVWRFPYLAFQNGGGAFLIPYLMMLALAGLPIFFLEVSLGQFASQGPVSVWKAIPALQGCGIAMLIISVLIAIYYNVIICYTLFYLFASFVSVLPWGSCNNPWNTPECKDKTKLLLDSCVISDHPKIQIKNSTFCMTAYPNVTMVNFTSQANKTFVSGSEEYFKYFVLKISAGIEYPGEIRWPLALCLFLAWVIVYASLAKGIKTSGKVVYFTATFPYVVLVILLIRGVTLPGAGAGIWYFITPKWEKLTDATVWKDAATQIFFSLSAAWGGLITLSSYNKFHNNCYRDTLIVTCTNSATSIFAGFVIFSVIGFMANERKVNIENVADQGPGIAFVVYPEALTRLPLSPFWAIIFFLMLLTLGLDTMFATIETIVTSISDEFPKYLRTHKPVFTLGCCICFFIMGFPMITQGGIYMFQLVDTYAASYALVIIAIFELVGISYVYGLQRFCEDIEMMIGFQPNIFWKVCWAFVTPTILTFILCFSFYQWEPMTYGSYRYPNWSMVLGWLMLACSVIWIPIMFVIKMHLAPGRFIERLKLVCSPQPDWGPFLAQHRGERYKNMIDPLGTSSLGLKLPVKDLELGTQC

[9] = biological target: T3, Cytochrome P450 1A2 (Homo sapiens, UniProt P05177); experiment: Inhibition of CYP1A2 in human liver microsomes using phenacetin as substrate measured after 10 mins in presence of NADPH by LC-MS/MS analysis
T3 sequence (P05177 whole entry): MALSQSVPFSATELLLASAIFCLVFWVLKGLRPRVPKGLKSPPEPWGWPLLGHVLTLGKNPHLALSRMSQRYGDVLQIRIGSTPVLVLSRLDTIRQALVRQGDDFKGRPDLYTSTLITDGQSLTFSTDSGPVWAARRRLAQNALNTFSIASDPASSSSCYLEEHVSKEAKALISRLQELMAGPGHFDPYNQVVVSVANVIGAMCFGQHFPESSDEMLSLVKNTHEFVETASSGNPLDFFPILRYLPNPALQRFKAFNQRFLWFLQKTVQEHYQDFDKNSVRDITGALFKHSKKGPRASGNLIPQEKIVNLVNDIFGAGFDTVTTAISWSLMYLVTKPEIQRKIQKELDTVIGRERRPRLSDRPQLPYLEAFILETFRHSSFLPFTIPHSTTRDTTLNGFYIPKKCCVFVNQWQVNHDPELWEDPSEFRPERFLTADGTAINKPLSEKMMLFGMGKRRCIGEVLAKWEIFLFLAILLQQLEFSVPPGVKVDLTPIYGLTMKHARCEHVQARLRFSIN

[10] = biological target: Cytochrome P450 2C9 (Homo sapiens, UniProt P11712); experiment: Inhibition of CYP2C9 in human liver microsomes using diclofenac as substrate measured after 10 mins in presence of NADPH by LC-MS/MS analysis
Sequence of Cytochrome P450 2C9 (P11712 whole entry): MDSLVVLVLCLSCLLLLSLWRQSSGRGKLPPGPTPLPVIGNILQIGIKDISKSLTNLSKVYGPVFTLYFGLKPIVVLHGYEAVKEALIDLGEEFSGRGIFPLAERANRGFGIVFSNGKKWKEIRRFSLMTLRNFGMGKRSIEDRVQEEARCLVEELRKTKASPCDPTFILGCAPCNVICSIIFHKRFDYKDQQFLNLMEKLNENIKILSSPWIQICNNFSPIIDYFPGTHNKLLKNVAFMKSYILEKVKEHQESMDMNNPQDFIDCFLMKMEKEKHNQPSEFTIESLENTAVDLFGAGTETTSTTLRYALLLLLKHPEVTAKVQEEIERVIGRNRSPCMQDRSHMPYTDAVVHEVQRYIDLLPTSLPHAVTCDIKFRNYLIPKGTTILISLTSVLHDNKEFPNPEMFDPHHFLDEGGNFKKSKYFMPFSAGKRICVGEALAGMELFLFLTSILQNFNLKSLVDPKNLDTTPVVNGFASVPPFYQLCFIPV

[11] = biological target: Cytochrome P450 2C19 (Homo sapiens, UniProt P33261); experiment: Inhibition of CYP2C19 in human liver microsomes using S-mephenytoin as substrate measured after 10 mins in presence of NADPH by LC-MS/MS analysis
Sequence of Cytochrome P450 2C19 (P33261 whole entry): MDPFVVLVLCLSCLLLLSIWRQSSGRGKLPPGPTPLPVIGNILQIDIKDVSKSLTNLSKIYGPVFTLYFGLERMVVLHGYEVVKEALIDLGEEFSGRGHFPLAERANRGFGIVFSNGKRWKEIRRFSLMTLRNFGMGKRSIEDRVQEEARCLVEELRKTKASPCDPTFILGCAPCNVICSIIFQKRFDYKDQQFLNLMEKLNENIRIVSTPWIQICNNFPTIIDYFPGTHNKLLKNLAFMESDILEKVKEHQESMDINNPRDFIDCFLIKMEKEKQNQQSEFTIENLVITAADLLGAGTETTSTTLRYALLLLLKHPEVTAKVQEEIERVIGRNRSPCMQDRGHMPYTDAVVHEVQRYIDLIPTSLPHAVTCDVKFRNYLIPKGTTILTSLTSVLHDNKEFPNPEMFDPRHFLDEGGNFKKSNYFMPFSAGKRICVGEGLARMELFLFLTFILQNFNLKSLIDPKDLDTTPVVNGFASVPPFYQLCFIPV

[12] = biological target: Cytochrome P450 3A4 (Homo sapiens, UniProt P08684); experiment: Inhibition of CYP3A4 in human liver microsomes using midazolam as substrate measured after 7 mins in presence of NADPH by LC-MS/MS analysis
Sequence of Cytochrome P450 3A4 (P08684 whole entry): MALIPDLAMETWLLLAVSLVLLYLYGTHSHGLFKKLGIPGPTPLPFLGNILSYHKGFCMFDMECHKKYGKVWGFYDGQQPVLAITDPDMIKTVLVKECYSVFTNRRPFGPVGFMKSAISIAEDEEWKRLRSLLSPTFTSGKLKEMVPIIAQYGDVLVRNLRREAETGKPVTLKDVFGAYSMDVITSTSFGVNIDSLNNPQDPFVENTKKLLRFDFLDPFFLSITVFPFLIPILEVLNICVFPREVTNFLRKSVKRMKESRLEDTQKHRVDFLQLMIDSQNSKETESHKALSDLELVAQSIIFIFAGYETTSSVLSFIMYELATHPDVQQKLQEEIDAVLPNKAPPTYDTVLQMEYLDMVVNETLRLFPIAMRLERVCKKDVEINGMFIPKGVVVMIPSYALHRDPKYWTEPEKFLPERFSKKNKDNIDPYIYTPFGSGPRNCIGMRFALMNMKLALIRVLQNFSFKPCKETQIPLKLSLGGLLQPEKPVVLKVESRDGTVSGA

[13] = Permeability of the compound at pH 7.4 at 100 uM after 60 mins by PAMPA-BBB assay

| SMILES | IC50 [1] [µM] | microsomal CLint at 1 µM [2] [µL/min/mg] | microsomal CLint at 1 µM [3] [µL/min/mg] | IC50 [4] [µM] | Papp A→B at 1 h, 5 µM [5] [×10⁻⁶ cm/s] | Papp B→A at 1 h, 5 µM [6] [×10⁻⁶ cm/s] | efflux ratio at 1 h, 5 µM [7] | IC50 [8] [µM] | IC50 [9] [µM] | IC50 [10] [µM] | IC50 [11] [µM] | IC50 [12] [µM] | Papp at 1 h, 100 µM [13] [×10⁻⁶ cm/s] |
| --- | --- | --- | --- | --- | --- | --- | --- | --- | --- | --- | --- | --- | --- |
| C[C@H](Oc1ccc(C#N)cc1C(=O)N1Cc2cn(-c3ccccc3F)nc2C1)C(F)(F)F | 0.078 | 13.5 | 451 | > 10 | 57.4 | 61.7 | 1.1 | > 10 | > 10 | > 10 | > 10 | > 10 | > 10 |
| CS(=O)(=O)c1ccc(OCC2CC2)c(C(=O)N2Cc3cn(-c4ccccc4F)nc3C2)c1 | 0.038 | 0.3 | 5.3 | 9.9 | 24.6 | 58.9 | 2.4 | > 10 | > 10 | > 10 | > 10 | > 10 | 77.9 |
